Results from patent publication US20260083723A1, “THERAPEUTIC AGENT OR PROPHYLACTIC AGENT FOR AMYOTROPHIC LATERAL SCLEROSIS” (Toray Industries, Inc., priority 2022, published 2026).
Structures can show the parent of a compound that is named as a salt.

Assay: In vitro radical scavenging action (DPPH method)
Conditions: not given
Procedure: The radical scavenging action of a test compound can be evaluated using an in vitro test and, for example, by a method (Antioxidants, 2019, vol. 258) using a stable radical, 1,1-diphenyl-2-picrylhydrazil (DPPH).
Radical scavenging action was evaluated using the DPPH method in the compound of Comparative Example 1, which is a tetrahydroquinoxaline derivative, and in the tetrahydroquinoline derivative (I) or a pharmaceutically acceptable salt thereof. The DPPH method was performed using an antioxidant capacity measurement kit (Dojindo Laboratories).
A test compound was dissolved in DMSO, and the resulting solution was then mixed with an assay buffer and a DPPH solution, which are included in the kit, to a total volume of 200 μL to obtain a final concentration of 10% DMSO, and the reaction was allowed to proceed. Wells added with […] ferrostatin-1, a radical scavenger, were grouped as “control,” and wells not added with test compound were grouped as “background”. The test compound was serially diluted 3-fold starting from a maximum concentration of 100 μmol/L, and the diluted test compound (1.2, 3.7, 11.1, 33.3, or 100 μmol/L) was added and allowed to react at room temperature. Thirty minutes after the reaction, the absorbance at 517 nm was measured, and the average absorbance value was calculated (N=2). The radical scavenging action of the test compound (hereinafter referred to as radical scavenging rate, %) was calculated based on Equation 2. The EC50 value of the test compound was calculated from the radical scavenging rate.
A note “no detection of radical scavenging action (N.D.),” is given to compounds with a EC50 of >100 μmol/L.

SMILES	radical scavenging action (in words)
c1ccc(C2CNc3ccccc3N2)cc1 (stereo not shown) [Comparative Example 1, 2-phenyl-1,2,3,4-tetrahydroquinoxaline, reference compound]	exhibited radical scavenging action

Same assay, conditions: 1.2-100 μmol/L, 30 minutes at room temperature, absorbance at 517 nm

SMILES	EC50
O=C1CN(C(=O)Cc2ccc3c(c2)CCC(c2ccccc2)N3)CCN1 (stereo not shown) [Example 157]	> 100 µM
O=C(Cc1ccc2c(c1)CCC(c1ccccc1)N2)N1CC(O)C1 (stereo not shown) [Example 144, 1-(3-hydroxyazetidin-1-yl)-2-(2-phenyl-1,2,3,4-tetrahydroquinolin-6-yl)ethan-1-one hydrochloride]	> 100 µM
O=C(Cc1ccc2c(c1)CCC(c1ccccc1)N2)N1CC(O)C1 (stereo not shown) [Example 62, 1-(3-hydroxyazetidin-1-yl)-2-(2-phenyl-1,2,3,4-tetrahydroquinolin-6-yl)ethan-1-one]	> 100 µM
Clc1ccc2c(c1)NC(c1ccccc1)CC2 (stereo not shown) [Example 69, 7-chloro-2-phenyl-1,2,3,4-tetrahydroquinoline]	> 100 µM
O=C(Cc1ccc2c(c1)CCC(c1ccccc1)N2)N1CC(O)C1 (stereo not shown) [Example 143, 1-(3-hydroxyazetidin-1-yl)-2-(2-phenyl-1,2,3,4-tetrahydroquinolin-6-yl)ethan-1-one hydrochloride]	> 100 µM
Cc1ccc2c(c1)CCC(c1ccc(S(N)(=O)=O)cc1)N2 (stereo not shown) [Example 119, 4-(6-methyl-1,2,3,4-tetrahydroquinolin-2-yl)benzenesulfonamide]	> 100 µM
NS(=O)(=O)c1ccc(C2CCc3cc(Cl)ccc3N2)cc1 (stereo not shown) [Example 117, 4-(6-chloro-1,2,3,4-tetrahydroquinolin-2-yl)benzenesulfonamide]	> 100 µM
NS(=O)(=O)c1ccc(C2CCc3cc(F)ccc3N2)cc1 (stereo not shown) [Example 108, 4-(6-fluoro-1,2,3,4-tetrahydroquinolin-2-yl)benzenesulfonamide]	> 100 µM
NC(=O)c1ccc(C2CCc3ccccc3N2)cc1 (stereo not shown) [Example 38, 4-(1,2,3,4-tetrahydroquinolin-2-yl)benzamide]	> 100 µM
FC(F)(F)Oc1ccc(C2CCc3ccccc3N2)cc1 (stereo not shown) [Example 31, 2-(4-(trifluoromethoxy)phenyl)-1,2,3,4-tetrahydroquinoline]	> 100 µM
O=C(Cc1ccc2c(c1)CCC(c1ccccc1)N2)N1CC(F)(F)C1 (stereo not shown) [Example 160, 1-(3,3-difluoroazetidin-1-yl)-2-(2-phenyl-1,2,3,4-tetrahydroquinolin-6-yl)ethan-1-one]	> 100 µM
CC1(C)CN(C(=O)Cc2ccc3c(c2)CCC(c2ccccc2)N3)C1 (stereo not shown) [Example 146, 1-(3,3-dimethylazetidin-1-yl)-2-(2-phenyl-1,2,3,4-tetrahydroquinolin-6-yl)ethan-1-one]	> 100 µM
Clc1cccc2c1CCC(c1ccccc1)N2 (stereo not shown) [Example 67, 5-chloro-2-phenyl-1,2,3,4-tetrahydroquinoline]	> 100 µM
Fc1ccc2c(c1)NC(c1ccccc1)CC2 (stereo not shown) [Example 68, 7-fluoro-2-phenyl-1,2,3,4-tetrahydroquinoline]	> 100 µM
CN(CCO)C(=O)Cc1ccc2c(c1)CCC(c1ccccc1)N2 (stereo not shown) [Example 150, N-(2-hydroxyethyl)-N-methyl-2-(2-phenyl-1,2,3,4-tetrahydroquinolin-6-yl)acetamide]	> 100 µM
c1ccc([C@H]2CCc3ccccc3N2)cc1 [Example 2, (R)-2-phenyl-1,2,3,4-tetrahydroquinoline]	> 100 µM
NC(=O)Cc1ccc2c(c1)CCC(c1ccccc1)N2 (stereo not shown) [Example 60, 2-(2-phenyl-1,2,3,4-tetrahydroquinolin-6-yl)acetamide]	> 100 µM
O=C(Cc1ccc2c(c1)CCC(c1ccccc1)N2)N1CCNCC1 (stereo not shown) [Example 158, 2-(2-phenyl-1,2,3,4-tetrahydroquinolin-6-yl)-1-(piperazin-1-yl)ethan-1-one]	> 100 µM
Cc1ccc2c(c1)CCC(c1ccc(S(N)(=O)=O)cc1)N2 (stereo not shown) [Example 120, 4-(6-methyl-1,2,3,4-tetrahydroquinolin-2-yl)benzenesulfonamide]	> 100 µM
O=C(Cc1ccc2c(c1)CCC(c1ccccc1)N2)N1CC(F)(F)C1 (stereo not shown) [Example 161, 1-(3,3-difluoroazetidin-1-yl)-2-(2-phenyl-1,2,3,4-tetrahydroquinolin-6-yl)ethan-1-one]	> 100 µM
O=C(Cc1ccc2c(c1)CCC(c1ccccc1)N2)NC1CCC1 (stereo not shown) [Example 155, N-cyclobutyl-2-(2-phenyl-1,2,3,4-tetrahydroquinolin-6-yl)acetamide]	> 100 µM
NC(=O)c1ccc(C2CCc3cc(Cl)ccc3N2)cc1 (stereo not shown) [Example 121, 4-(6-chloro-1,2,3,4-tetrahydroquinolin-2-yl)benzamide]	> 100 µM
O=C(Cc1ccc2c(c1)CCC(c1ccccc1)N2)NC1CC1 (stereo not shown) [Example 152, N-cyclopropyl-2-(2-phenyl-1,2,3,4-tetrahydroquinolin-6-yl)acetamide]	> 100 µM
NC(=O)c1ccc(C2CCc3ccccc3N2)cc1 (stereo not shown) [Example 36, 4-(1,2,3,4-tetrahydroquinolin-2-yl)benzamide]	> 100 µM
NC(=O)c1ccc(C2CCc3ccccc3N2)cc1 (stereo not shown) [Example 37, 4-(1,2,3,4-tetrahydroquinolin-2-yl)benzamide]	> 100 µM
CC(C)(C)NC(=O)Cc1ccc2c(c1)CCC(c1ccccc1)N2 (stereo not shown) [Example 61, N-(tert-butyl)-2-(2-phenyl-1,2,3,4-tetrahydroquinolin-6-yl)acetamide]	> 100 µM
Cc1ccc2c(c1)NC(c1ccc(C(N)=O)cc1)CC2 (stereo not shown) [Example 106, 4-(7-methyl-1,2,3,4-tetrahydroquinolin-2-yl)benzamide]	> 100 µM
Fc1cc2c(cc1F)NC(c1ccccc1)CC2 (stereo not shown) [Example 85, 6,7-difluoro-2-phenyl-1,2,3,4-tetrahydroquinoline]	> 100 µM
O=C(Cc1ccc2c(c1)CCC(c1ccccc1)N2)NC1COC1 (stereo not shown) [Example 148, N-(oxetan-3-yl)-2-(2-phenyl-1,2,3,4-tetrahydroquinolin-6-yl)acetamide]	> 100 µM

The remaining lines, values ahead:

EC50	SMILES
> 100 µM	N#Cc1ccc(C2CCc3ccccc3N2)cc1 (stereo not shown) [Example 35, 4-(1,2,3,4-tetrahydroquinolin-2-yl)benzonitrile]
> 100 µM	CC(=O)Nc1ccc(C2CCc3ccccc3N2)cc1 (stereo not shown) [Example 21, N-(4-(1,2,3,4-tetrahydroquinolin-2-yl)phenyl)acetamide]
8.54 µM	c1ccc(C2CNc3ccccc3N2)cc1 (stereo not shown) [Comparative Example 1, 2-phenyl-1,2,3,4-tetrahydroquinoxaline, reference compound]
> 100 µM	NS(=O)(=O)c1ccc(C2CCc3ccccc3N2)cc1 (stereo not shown) [Example 32, 4-(1,2,3,4-tetrahydroquinolin-2-yl)benzenesulfonamide]
> 100 µM	NS(=O)(=O)c1ccc(C2CCc3ccccc3N2)cc1 (stereo not shown) [Example 34, 4-(1,2,3,4-tetrahydroquinolin-2-yl)benzenesulfonamide]
> 100 µM	NS(=O)(=O)c1ccc(C2CCc3c(Cl)cccc3N2)cc1 (stereo not shown) [Example 134, 4-(5-chloro-1,2,3,4-tetrahydroquinolin-2-yl)benzenesulfonamide]
> 100 µM	NS(=O)(=O)c1ccc(C2CCc3cc(F)ccc3N2)cc1 (stereo not shown) [Example 109, 4-(6-fluoro-1,2,3,4-tetrahydroquinolin-2-yl)benzenesulfonamide]
> 100 µM	NS(=O)(=O)c1ccc(C2CCc3cc(Cl)ccc3N2)cc1 (stereo not shown) [Example 115, 4-(6-chloro-1,2,3,4-tetrahydroquinolin-2-yl)benzenesulfonamide]
> 100 µM	NS(=O)(=O)c1ccc(C2CCc3ccccc3N2)cc1 (stereo not shown) [Example 33, 4-(1,2,3,4-tetrahydroquinolin-2-yl)benzenesulfonamide]
> 100 µM	NC(=O)c1ccc(C2CCc3cc(Cl)ccc3N2)cc1 (stereo not shown) [Example 131, 4-(6-chloro-1,2,3,4-tetrahydroquinolin-2-yl)benzamide]
> 100 µM	CS(=O)(=O)c1ccc(C2CCc3ccccc3N2)cc1 (stereo not shown) [Example 16, 2-(4-(methylsulfonyl)phenyl)-1,2,3,4-tetrahydroquinoline]
> 100 µM	NC(=O)c1ccc(C2CCc3c(Cl)cccc3N2)cc1 (stereo not shown) [Example 138, 4-(5-chloro-1,2,3,4-tetrahydroquinolin-2-yl)benzamide]
> 100 µM	NS(=O)(=O)c1ccc(C2CCc3ccc(F)cc3N2)cc1 (stereo not shown) [Example 118, 4-(7-fluoro-1,2,3,4-tetrahydroquinolin-2-yl)benzenesulfonamide]
> 100 µM	Fc1cccc2c1CCC(c1ccccc1)N2 (stereo not shown) [Example 66, 5-fluoro-2-phenyl-1,2,3,4-tetrahydroquinoline]
> 100 µM	NC(=O)c1ccc(C2CCc3c(F)cccc3N2)cc1 (stereo not shown) [Example 137, 4-(5-fluoro-1,2,3,4-tetrahydroquinolin-2-yl)benzamide]
> 100 µM	Cc1ccc2c(c1)CCC(c1ccc(C(N)=O)cc1)N2 (stereo not shown) [Example 99, 4-(6-methyl-1,2,3,4-tetrahydroquinolin-2-yl)benzamide]
> 100 µM	FC(F)(F)c1ccc(C2CCc3ccccc3N2)cc1 (stereo not shown) [Example 29, 2-(4-(trifluoromethyl)phenyl)-1,2,3,4-tetrahydroquinoline]
> 100 µM	COC1CN(C(=O)Cc2ccc3c(c2)CCC(c2ccccc2)N3)C1 (stereo not shown) [Example 147, 1-(3-methoxyazetidin-1-yl)-2-(2-phenyl-1,2,3,4-tetrahydroquinolin-6-yl)ethan-1-one]
> 100 µM	O=C(Cc1ccc2c(c1)CCC(c1ccccc1)N2)N1CCC1 (stereo not shown) [Example 151, 1-(azetidin-1-yl)-2-(2-phenyl-1,2,3,4-tetrahydroquinolin-6-yl)ethan-1-one]
